Measured values from article PMC4239038, “The Potent Cdc7-Dbf4 (DDK) Kinase Inhibitor XL413 Has Limited Activity in Many Cancer Cell Lines and Discovery of Potential New DDK Inhibitor Scaffolds” (PLoS ONE, 2014).
Counter-ions that a name gives are not always drawn.

Biological target: T1, purified DDK (Homo sapiens, UniProt O00311)
T1 construct: His6-Smt3 (SUMO) (N, cleaved yes); made in house; host or cells: E. coli BL21-RIPL (pKT37, pETDuet-1 vector)
Assay: DDK thermal stability shift assay (TSA)
Type: binding
Settings: library screen, 20 µM compound

T1 sequence (O00311 whole entry): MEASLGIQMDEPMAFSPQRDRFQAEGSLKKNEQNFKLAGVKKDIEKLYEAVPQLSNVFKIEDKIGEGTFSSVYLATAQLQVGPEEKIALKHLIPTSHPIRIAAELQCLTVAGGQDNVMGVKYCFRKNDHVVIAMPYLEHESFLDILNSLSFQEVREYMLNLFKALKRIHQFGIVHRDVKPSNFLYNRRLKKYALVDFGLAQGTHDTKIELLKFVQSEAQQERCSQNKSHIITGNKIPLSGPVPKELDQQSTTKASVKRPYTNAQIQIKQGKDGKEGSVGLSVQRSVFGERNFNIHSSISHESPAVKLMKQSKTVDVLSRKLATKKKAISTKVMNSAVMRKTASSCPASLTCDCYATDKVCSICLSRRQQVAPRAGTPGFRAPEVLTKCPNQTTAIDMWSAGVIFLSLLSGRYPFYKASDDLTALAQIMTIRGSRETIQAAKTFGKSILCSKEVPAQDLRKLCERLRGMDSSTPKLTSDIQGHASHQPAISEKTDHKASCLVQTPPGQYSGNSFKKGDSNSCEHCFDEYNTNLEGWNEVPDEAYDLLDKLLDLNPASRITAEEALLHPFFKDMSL
T1 sequence (Q9UBU7 341-674 partner limits assumed): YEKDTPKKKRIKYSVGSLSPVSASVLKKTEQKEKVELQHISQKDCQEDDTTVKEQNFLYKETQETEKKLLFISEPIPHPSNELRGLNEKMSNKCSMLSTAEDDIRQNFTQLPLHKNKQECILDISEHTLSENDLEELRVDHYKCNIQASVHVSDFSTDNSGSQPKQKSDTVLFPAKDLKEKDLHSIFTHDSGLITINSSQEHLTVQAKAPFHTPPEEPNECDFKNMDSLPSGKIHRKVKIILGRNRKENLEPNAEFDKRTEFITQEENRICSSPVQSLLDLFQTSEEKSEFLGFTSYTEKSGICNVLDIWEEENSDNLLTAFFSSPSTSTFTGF

Structure (SMILES)	ΔTm [°C]	ΔTm at 20 µM [°C]
O=c1[nH]c2ccccc2n1C1CCN(Cc2ccc(-c3nc4cc5nc[nH]c5cc4nc3-c3ccccc3)cc2)CC1	0	–
COc1cc2ncnc(N3CCN(C(=O)Nc4ccc(Oc5ccccc5)cc4)CC3)c2cc1OC	0	–
COc1cc2c(cc1OC)-c1[nH]nc(Nc3cccc(F)c3)c1C2	0.3	–
Cc1ncc2ccccc2c1C#N [4-Cyano-3-methylisoquinoline]	0	–
Nc1ncnc2c1c(I)cn2[C@@H]1O[C@H](CO)[C@@H](O)[C@H]1O [5-Iodotubercidin]	1.9	–
CC(C)(C)c1cc(C=C(C#N)C#N)cc(Br)c1O [AG 1024]	1.2	–
COc1cc2ncnc(Nc3cccc(Cl)c3)c2cc1OC [AG 1478]	0.3	–
O=c1cc(-c2cccc3c2Sc2ccccc2S3)oc(N2CCOCC2)c1 [ATM Kinase Inhibitor]	1.1	–
O=C1NC(=O)c2c1c1c3ccccc3[nH]c1c1[nH]c3ccccc3c21 [Arcyriaflavin A]	0.5	–
Cc1ccc(S(=O)(=O)/C=C/C#N)cc1 [BAY 11-7082]	0	–
CN1CCC(Nc2ncc3ncnc(Nc4ccc(F)c(Cl)c4)c3n2)CC1.Cl.Cl [BIBX 1382 dihydrochloride]	0.8	–
Cn1cnc2cc3c(Nc4cccc(Br)c4)ncnc3cc21 [BPIQ-I]	0.2	–
CCN(CC)C(=O)c1ccc(Nc2nc(OCC3CCCCC3)c3[nH]cnc3n2)cc1 [Cdk2 Inhibitor IV, NU6140]	0.2	–
Cc1ccc2c(=O)c3ccccc3n(CCCN)c2c1C.O=C(O)/C=C\C(=O)O [ER 27319 maleate]	0.5	–
O=S(=O)(c1cccc2cnccc12)N1CCCNCC1 [Fasudil hydrochloride]	–	0.9
O=C(c1ccc(Nc2nccc(-c3cc4ccccc4s3)n2)cc1)N1CCC(N2CCCC2)CC1 [IKK 16]	1.5	–
O=C(c1ccc(Nc2nccc(-c3cc4ccccc4s3)n2)cc1)N1CCC(N2CCCC2)CC1 [IKK Inhibitor VII]	1.7	–

Structure (SMILES)	ΔTm [°C]	ΔTm at 20 µM [°C]
NC(=O)Nc1sc(-c2ccccc2)cc1C(N)=O [IKK-2 Inhibitor VI]	1.2	–
O=C1Nc2ccc(I)cc2/C1=C1/Nc2ccccc2/C1=N\O [Indirubin-3'-monoxime, 5-Iodo-]	0.5	–
O=C1NC(=O)c2c1c1c3ccccc3[nH]c1n1cncc21 [Isogranulajmide]	–	1
C/C(O)=C(\C#N)C(=O)Nc1cc(Br)ccc1Br [LFM-A13]	0	–
Cl.O=c1cc(N2CCOCC2)oc2c(-c3ccccc3)cccc12 [LY 294002 hydrochloride]	0.8	–
O=c1cc(N2CCOCC2)oc2c(-c3ccccc3)cccc12 [LY 294002]	–	0.8
O=c1cc(N2CCNCC2)oc2c(-c3ccccc3)cccc12 [LY 303511]	–	0.1
Cl.O=S(=O)(c1cccc2c(Cl)cccc12)N1CCCNCC1 [ML 9 hydrochloride]	0.6	–
Cc1[nH]c(/C=C2\C(=O)Nc3ccc(S(=O)(=O)N(C)c4cccc(Cl)c4)cc32)c(C)c1C(=O)N1CCN(C)CC1 [Met Kinase Inhibitor]	0.2	–
CNc1cc2c(Nc3cccc(Br)c3)ncnc2cn1 [PD 158780]	0.2	–
CCCOc1ccc(/C=C2/SC(=O)NC2=O)cc1 [PIM1/2 Kinase Inhibitor VI]	0.2	–
O=C1NC(=O)C(c2cn(CCCn3ccnc3)c3ccccc23)=C1Nc1ccccc1 [PKCb Inhibitor]	0.2	–
O=C1Nc2ccc(Cl)cc2/C1=C/c1cc(Cl)c(O)c(Cl)c1 [PKR Inhibitor, NegaKve Control]	0.2	–
c1nc2nc(Nc3ccc(N4CCOCC4)cc3)nc(NC3CCCCC3)c2[nH]1 [Reversine]	–	1.4
CS(=O)(=O)O.Cn1cc(C2=C(c3cn(CCCSC(=N)N)c4ccccc34)C(=O)NC2=O)c2ccccc21 [Ro 31-8220 mesylate]	1.5	–
CC(=O)c1c(O)c(C)c(O)c(Cc2c(O)c3c(c(C(=O)/C=C/c4ccccc4)c2O)OC(C)(C)C=C3)c1O [Ro]lerin, 3'-[(8-Cinnamoyl-5,7-dihydroxy-2,2-dimethyl-2H-1-benzopyran-6-yl)methyl]-2',4',6'-trihydroxy-5'-methylacetophenone]	–	2.4

Results, then the compound that gave them:

ΔTm [°C]	ΔTm at 20 µM [°C]	Structure (SMILES)
0.6	–	O=C1Cc2c([nH]c3ccc(Br)cc23)-c2ncccc2N1 [1-Azakenpaullone]
0.8	–	CCN(CC)CCCCN1c2ccccc2Oc2ccc(Cl)cc21.Cl [10-DEBC hydrochloride]
0	–	COc1cc2ncc(-c3ccccc3)nc2cc1OC [AG 1296]
0	–	Cc1nc2cc3nc(-c4cccs4)cnc3cc2n1C [AGL 2043]
–	0.3	CCN(CC)CCCCN1c2ccccc2Oc2ccc(Cl)cc21 [Akt Inhibitor X]
–	0.5	O=C1Cc2c([nH]c3ccc([N+](=O)[O-])cc23)-c2ccccc2N1 [Alsterpaullone]
–	0.4	O=C1NC(=O)c2cc(Nc3ccc(F)cc3)c(Nc3ccc(F)cc3)cc21 [CGP 53353]
32	–	O=C(O)/C=C/c1cc(Br)c(Br)c(Br)c1Br [Casein Kinase II Inhibitor III, TBCA]
2.2	–	O=C1N=C(NCc2cccs2)SC1=Cc1ccc2ncccc2c1 [Cdk1 Inhibitor IV, RO-3306, 5-(6-Quinolinylmethylene)-2-[(2-thienylmethyl)amino]-4(5H)-thiazolone]
0.3	–	Cc1nc(N)sc1-c1ccnc(Nc2cccc([N+](=O)[O-])c2)n1 [Cdk2/9 Inhibitor]
0	–	Nc1[nH]nc2nnc(-c3c(-c4ccccc4)nn4ccccc34)cc12 [ERK Inhibitor II, FR180204]
0.3	–	c1ccc(-c2cnc(Nc3ccc(OCCN4CCCC4)cc3)s2)cc1 [Flt-3 Inhibitor III]
3.5	–	O=C1Nc2ccc(I)cc2C1=Cc1cc(Br)c(O)c(Br)c1 [GW 5074, 3-(3,5-Dibromo-4-hydroxy-benzylidene)-5-iodo-1,3-dihydro-indol-2-one]
0.5	–	CNCCNS(=O)(=O)c1cccc2cnccc12.Cl.Cl [H-8, Dihydrochloride]
0	–	Cl.Cl.NC(N)=NCCNS(=O)(=O)c1cccc2cnccc12 [HA 1004, Dihydrochloride]
0	–	O=C(Nc1cc(Cl)cc2c1[nH]c1cnccc12)c1cccnc1 [IKK Inhibitor X]
1.9	–	N#Cc1c(C2CCNCC2)cc(-c2c(O)cccc2OCC2CC2)nc1N [IKK-2 Inhibitor VIII]
0.3	–	NC(=O)Nc1cc(-c2ccccc2)sc1C(N)=O [IKK-2 Inhibitor XI]

ΔTm [°C]	ΔTm at 20 µM [°C]	Structure (SMILES)
0	–	Cn1nc2c3c(cccc31)C(=O)c1ccccc1-2 [JNK Inhibitor, Negajve Control]
0.2	–	CCCCCCOC(=O)[C@]1(O)C[C@@H]2O[C@@]1(C)n1c3ccccc3c3c4c(c5c6ccccc6n2c5c31)C(=O)NC4 [KT5720]
0.2	–	COc1cc2nccc(Oc3ccc(NC(=O)Nc4ccc(F)cc4F)c(F)c3)c2cc1OC [Ki 8751]
0.3	–	Cl.O=S(=O)(c1cccc2c(I)cccc12)N1CCCNCC1 [ML-7, Hydrochloride]
0.3	–	Nc1ccc2ncnc(NCCc3ccc(Oc4ccccc4)cc3)c2c1 [NF-kB Acjvajon Inhibitor]
–	0.2	CC[C@H](CO)Nc1nc(NCc2ccccc2O)c2ncn(C(C)C)c2n1 [Olomoucine II]
–	0.1	Cn1cnc2c(NCc3ccccc3)nc(NCCO)nc21 [Olomoucine]
–	0.4	Cc1[nH]c(/C=C2\C(=O)Nc3ccc(S(=O)(=O)Cc4c(Cl)cccc4Cl)cc32)c(C)c1C(=O)N1CCC[C@@H]1CN1CCCC1 [PHA 665752]
0	–	Cc1cc(C(C)Nc2ccccc2)c2nc(N3CCOCC3)cc(=O)n2c1 (centres unmarked) [PI 3-Kβ Inhibitor VI, TGX-221]
0.3	–	O=C1NC(=O)C(=Cc2ccc(-c3ccc(F)cc3O)o2)S1 [PI 3-Kγ/CKII Inhibitor]
0.6	–	Nc1ccc(-c2cccc3c(=O)cc(N4CCOCC4)oc23)cc1 [PI 828]
0.6	–	Nc1ncnc2c1cnn2-c1ccccc1 [PP3]
–	0.2	CC(C)[C@H](CO)Nc1nc(Nc2cccc(Cl)c2)c2ncn(C(C)C)c2n1 [Purvalanol A]
–	0	CO[C@H]1C[C@@H]2CC[C@@H](C)[C@@](O)(O2)C(=O)C(=O)N2CCCC[C@H]2C(=O)O[C@H]([C@H](C)C[C@@H]2CC[C@@H](O)[C@H](OC)C2)CC(=O)[C@H](C)/C=C(\C)[C@@H](O)[C@@H](OC)C(=O)[C@H](C)C[C@H](C)/C=C/C=C/C=C/1C [Rapamycin]
0.5	–	COc1ccc2nc3c(c(C)nn3C)c(NCCOCCO)c2c1 [Ras/Rac TransformaEon Blocker, SCH 51344]
0	–	O=C(Nc1ccncc1)Nc1c(Cl)cc(Cl)cc1Cl [Rho Kinase Inhibitor II]
1.5	–	O=C(Nc1ccc(-c2cn[nH]c2)cc1)C1COc2ccccc2O1 (centres unmarked) [Rho Kinase Inhibitor V]
–	0.6	Oc1ccc(-c2nc(-c3ccncc3)c(-c3ccc(F)cc3)[nH]2)cc1 [SB 202190]

Same assay, conditions: library screen, 20 µM compound; 20 µM

Structure (SMILES)	ΔTm [°C]
O=c1cc(N2CCOCC2)oc2c1ccc1ccccc12 [DNA-PK Inhibitor II]	1
CN(C)CCCn1cc(C2=C(c3c[nH]c4ccccc34)C(=O)NC2=O)c2ccccc21 [GF 109203X]	0.6
Cl.Cl.O=S(=O)(NCCNC/C=C/c1ccc(Br)cc1)c1cccc2cnccc12 [H 89 dihydrochloride]	0.3
Nc1[nH]nc2nc3ccccc3nc12 [NSC 693868]	0.2

Results, then the compound that gave them:

ΔTm [°C]	Structure (SMILES)
0.2	O=C(NC(NC(=S)Nc1ccc(F)c([N+](=O)[O-])c1)C(Cl)(Cl)Cl)C(c1ccccc1)c1ccccc1 (centres unmarked) [CGK 733]
0.5	Nc1ncnc2n[nH]c(Nc3ccc(F)cc3)c12 [CGP 57380]
1.2	O=c1cc(N2CCOCC2)oc2c1ccc1ccccc12 [NU 7026]

Same assay, conditions: titration across a 200-fold range of inhibitor concentrations

Structure (SMILES)	ΔTm profile
O=c1c(-c2ccc(O)cc2)coc2cc(O)cc(O)c12 [Genistein, 5,7-Dihydroxy-3-(4-hydroxyphenyl)-4H-1-benzopyran-4-one]	increased ΔTm at lower inhibitor concentrations and then decreased ΔTm at 5, 10 and 20 µM concentrations
